This note sets out measurements from US6347239B1, “Method of evaluating the efficacy of drug on brain nerve cells” (priority 1998, dated 2002).

Assay [1] concerns primary motor cortex of patients with ALS. In words: Proton MRSI of NAA/Cr in the motor cortex of ALS patients, paired scans. Type of assay: in vivo, human. As for the experimental part: Nineteen patients with a diagnosis of definite or probable ALS, as per the El Escorial Criteria, ^12 were recruited. Each patient underwent paired MRSI examinations. […] Thus, closely paired MRSIs were obtained off medication in 12 subjects who formed a disease control group ALS-C.
Brain proton spectroscopy was performed using a Philips Gyroscan ACS3 operating at 1.5 Tesla (Philips Medical System, Best, The Netherlands). After axial and sagittal scout images and sagittal T1-weighted images were obtained, axial T1-weighted images were acquired with an angulation determined from sagittal T1-weighted images such that the transverse plane was perpendicular to the rostral-caudal axis of the precentral gyrus. These transverse scans were used to select a volume of interest (VOI) centered on the central sulcus, high in the cranium comprised of predominantly cortical brain (FIG. 1A). Cranio-caudal (CC) thickness was 20 mm. Anteroposterior (AP) and left-right (LR) dimensions were adjusted for each patient depending on the skull size and shape to maximize size without including skull. MRSI was performed using a 90°-180°−180° (PRESS) sequence (TR=1750, TE=272, 250×250 mm FOV, 32×32 phase-encoding steps) with prior suppression of water by selective excitation. One patient had all their scans performed with TR=1500. The ROI was repositioned in the identical location in follow up scans of each patient.
Post-processing of data, included a mild Gaussian filter and an inverse two-dimensional Fourier transform of both the water-suppressed and -unsuppressed ^1H-MRS. This was accomplished with XUNSPEC1 software (Philips Medical Systems Best, The Netherlands) running on a Sun SPARC™ station.
The residual water signal was removed using the HSVD (Hankel Singular-Value Decomposition) algorithm which models the time-domain ^1H-MRS data in each voxel with exponentially damped sinusoids. Peaks used to model the water signal were then subtracted from the original data. This algorithm is fully automatic and requires no prior knowledge or operator intervention.
Automated calculation of metabolite peak areas was performed on operator-selected voxels within the motor cortex. Peaks were digitally integrated to yield areas. These values were normalized by dividing them by that of Cr.
The NAA/Cr of the primary motor cortex was determined by averaging the NAA/Cr intensities of voxels located in the precentral gyrus of both hemispheres (FIGS. 1A and 1B). The difference in motor cortex NAA/Cr between two scans (ΔNAA/Cr) obtained approximately 3 weeks apart was determined for each ALS patient in the treated (ALS-R) and control (ALS-C) groups. ΔNAA/Cr was compared between the treated and control groups using a two-sample two-sided Student's t-test. In addition, a two-sided paired Student's t-test was used to evaluate the significance of […] within each group.

The next assay has as its system patients with ALS. In words: Clinical status and muscle strength (MRC grades) of ALS patients during therapy. It counts as in vivo, human. The text has this: Deltoid and iliopsoas MRC grades improved bilaterally from 4 to 4+.
Several patients agreed to longer term follow up studies. […] Patient #17 was never treated: NAA/Cr decreased from 2.51 to 2.42 after 21 days and further to 2.11 4 months later; their symptoms progressed slowly.

SMILES strings stand for the structures. Values joined by “and” are separate entries in the source; they are usually repeats but may differ in a detail not shown here. Identical values can stand only once.

Regarding `Nc1nc2ccc(OC(F)(F)F)cc2s1` [RILUZOLE, 2-amino-6-trifluoromethoxy-benzothiazole], the “average NAA/Cr for the group after therapy” value in assay [1] (11 patients (ALS-R), 24±8 days after initiating therapy, increased from 2.14±0.26, mean±SD, p=0.044) turned out to be 2.27±0.24. Besides, the “ΔNAA/Cr = Change in NAA/Cr between MRSI scan #1 and #2” value in assay [1] (ALS-R group, scan just before treatment vs approximately three weeks after starting 50 mg bid, individual patients 1-11 and group mean (n = 11)) is −0.011 and 0.111 and 0.438 and 0.295 and 0.118 and 0.234 and −0.021 and −0.251 and 0.222 and 0.290 and 0.034. Besides, the “NAA/Cr MRSI #2 (NAA/Cr of motor cortex)” value in assay [1] (ALS-R group, second scan approximately three weeks after starting 50 mg bid, individual patients 1-11 and group mean (n = 11)) is 2.508 and 2.643 and 2.442 and 2.416 and 2.423 and 2.291 and 1.890 and 2.083 and 2.247 and 1.969 and 2.053. Moreover, the “change in NAA/Cr for the treated group with respect to the untreated group (increase)” value in assay [1] (ALS-R vs ALS-C, approximately 3 weeks, mean±SE, p=0.008) is reported as 0.22±0.095. Moreover, the NAA/Cr in assay [1] (patient #2, after 35 days of therapy, from 2.53) is reported as 2.64; in assay [1] (patient #2, three months later than the 35-day scan) it was 2.74; in assay [1] (patient #3, after 18 days of therapy, from 2.00), 2.44; in assay [1] (patient #3, three months later than the 18-day scan), 1.46; in assay [1] (patient #5, after 21 days of therapy, from 2.24), 2.31; in assay [1] (patient #5, one year later) it was 2.42. The “signal from NAA in the motor cortex” value in assay [1] (patients with ALS, acute (within 3 weeks) after treatment) is reported as “increase”. Further, the clinical status result with patients with ALS (patient #2, three months after the 35-day scan) was “increased strength and fewer cramps”; in the assay with patients with ALS (patient #3, three months after the 18-day scan), “significant clinical deterioration”. In the assay on patients with ALS (patient #5, one year later), the “clinical status (weakness, predominantly LMN features)” value is “slowly progressed”. For the same molecule, the “symptomatic and functional changes” value in the assay with patients with ALS (patient #11, after 35 days of therapy) was “improved strength and reduced disability”.
